Results taken from article PMC11864979, “First-in-class ultralong-target-residence-time p38α inhibitors as a mitosis-targeted therapy for colorectal cancer” (Nature Cancer, 2025).
Like-named read-outs stand apart in the source and are kept apart here.

Columns and labels:
Assay in all cases: selectivity profiling in a panel of 340 wild-type kinases (Reaction Biology Europe)
Assay type in all cases: binding
[1] = biological target: T1, 340 wild-type kinases (Homo sapiens, UniProt O60674)
T1 construct: purchased Reaction Biology Europe

[2] = biological target: T2, 340 wild-type kinases (Homo sapiens, UniProt P00533)
T2 construct: purchased Reaction Biology Europe

[3] = biological target: T3, 340 wild-type kinases (Homo sapiens, UniProt P14616)
T3 construct: purchased Reaction Biology Europe

[4] = biological target: T4, 340 wild-type kinases (Homo sapiens, UniProt P22455)
T4 construct: purchased Reaction Biology Europe

[5] = biological target: T5, 340 wild-type kinases (Homo sapiens, UniProt P51812)
T5 construct: purchased Reaction Biology Europe

[6] = biological target: T6, 340 wild-type kinases (Homo sapiens, UniProt P51956)
T6 construct: purchased Reaction Biology Europe
T6 sequence (P51956 1-506): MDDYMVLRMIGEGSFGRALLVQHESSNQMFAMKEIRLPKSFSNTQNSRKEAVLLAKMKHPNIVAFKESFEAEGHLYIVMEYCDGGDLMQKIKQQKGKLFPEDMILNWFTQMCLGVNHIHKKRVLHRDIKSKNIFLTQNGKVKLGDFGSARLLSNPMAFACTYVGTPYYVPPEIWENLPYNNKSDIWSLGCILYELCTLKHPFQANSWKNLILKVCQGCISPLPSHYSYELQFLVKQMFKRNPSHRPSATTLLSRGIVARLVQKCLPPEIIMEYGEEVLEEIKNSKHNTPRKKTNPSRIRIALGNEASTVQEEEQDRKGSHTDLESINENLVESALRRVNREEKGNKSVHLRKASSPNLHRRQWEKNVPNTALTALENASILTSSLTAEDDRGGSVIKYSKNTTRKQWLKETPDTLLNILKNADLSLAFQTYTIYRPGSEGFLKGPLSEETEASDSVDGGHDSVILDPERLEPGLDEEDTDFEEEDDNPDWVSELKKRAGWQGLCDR

[7] = biological target: T7, 340 wild-type kinases (Homo sapiens, UniProt Q05397)
T7 construct: purchased Reaction Biology Europe

[8] = biological target: T8, 340 wild-type kinases (Homo sapiens, UniProt Q06187)
T8 construct: purchased Reaction Biology Europe

[9] = biological target: T9, 340 wild-type kinases (Homo sapiens, UniProt Q16288)
T9 construct: purchased Reaction Biology Europe

[10] = biological target: T10, 340 wild-type kinases (Homo sapiens, UniProt Q9BWU1)
T10 construct: purchased Reaction Biology Europe

[11] = biological target: T11, 340 wild-type kinases (Homo sapiens, UniProt Q9HBY8)
T11 construct: purchased Reaction Biology Europe
T11 sequence (Q9HBY8 1-367): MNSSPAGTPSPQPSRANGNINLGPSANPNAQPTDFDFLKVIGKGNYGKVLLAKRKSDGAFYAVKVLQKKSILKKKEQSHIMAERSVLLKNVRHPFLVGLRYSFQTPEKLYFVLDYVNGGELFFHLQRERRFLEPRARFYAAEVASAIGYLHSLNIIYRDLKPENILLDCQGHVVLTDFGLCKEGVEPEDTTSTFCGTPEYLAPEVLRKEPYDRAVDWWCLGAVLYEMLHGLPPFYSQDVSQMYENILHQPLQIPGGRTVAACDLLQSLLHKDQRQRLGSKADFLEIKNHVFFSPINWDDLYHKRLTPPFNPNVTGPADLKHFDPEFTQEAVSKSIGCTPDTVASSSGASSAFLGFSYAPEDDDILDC

T10 sequence (Q9BWU1 whole entry): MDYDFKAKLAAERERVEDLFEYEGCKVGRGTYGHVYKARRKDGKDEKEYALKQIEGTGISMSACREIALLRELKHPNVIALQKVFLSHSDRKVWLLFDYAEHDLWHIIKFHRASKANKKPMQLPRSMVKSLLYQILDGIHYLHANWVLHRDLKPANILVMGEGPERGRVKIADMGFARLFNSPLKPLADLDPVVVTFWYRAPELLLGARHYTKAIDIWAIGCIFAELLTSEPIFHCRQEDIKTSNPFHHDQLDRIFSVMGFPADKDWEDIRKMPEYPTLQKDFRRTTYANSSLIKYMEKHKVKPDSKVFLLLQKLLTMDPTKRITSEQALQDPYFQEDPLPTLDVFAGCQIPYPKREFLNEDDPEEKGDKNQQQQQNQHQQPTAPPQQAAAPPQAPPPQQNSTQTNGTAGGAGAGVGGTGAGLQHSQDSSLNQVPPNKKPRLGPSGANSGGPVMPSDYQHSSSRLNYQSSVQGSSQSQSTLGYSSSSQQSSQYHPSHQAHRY
T5 sequence (P51812 whole entry): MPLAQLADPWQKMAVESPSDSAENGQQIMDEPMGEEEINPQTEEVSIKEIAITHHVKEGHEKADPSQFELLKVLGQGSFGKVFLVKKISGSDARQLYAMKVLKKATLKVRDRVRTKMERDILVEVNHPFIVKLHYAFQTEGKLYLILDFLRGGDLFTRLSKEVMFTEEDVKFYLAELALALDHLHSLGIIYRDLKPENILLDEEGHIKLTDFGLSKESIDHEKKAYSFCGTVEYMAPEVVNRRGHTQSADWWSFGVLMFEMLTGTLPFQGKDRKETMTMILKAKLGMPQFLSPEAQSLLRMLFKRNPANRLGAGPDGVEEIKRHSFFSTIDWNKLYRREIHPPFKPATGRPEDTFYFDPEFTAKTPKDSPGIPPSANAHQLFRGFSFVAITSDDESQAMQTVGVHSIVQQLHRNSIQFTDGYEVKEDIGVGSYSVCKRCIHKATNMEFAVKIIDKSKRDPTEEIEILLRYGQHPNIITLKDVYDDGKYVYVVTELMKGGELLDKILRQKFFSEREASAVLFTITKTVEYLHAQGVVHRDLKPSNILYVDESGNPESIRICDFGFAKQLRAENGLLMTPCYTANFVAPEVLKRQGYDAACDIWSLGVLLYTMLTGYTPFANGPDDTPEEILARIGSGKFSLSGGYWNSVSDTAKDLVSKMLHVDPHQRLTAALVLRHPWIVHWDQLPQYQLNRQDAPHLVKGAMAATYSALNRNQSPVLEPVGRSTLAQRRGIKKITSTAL
T4 sequence (P22455 22-802): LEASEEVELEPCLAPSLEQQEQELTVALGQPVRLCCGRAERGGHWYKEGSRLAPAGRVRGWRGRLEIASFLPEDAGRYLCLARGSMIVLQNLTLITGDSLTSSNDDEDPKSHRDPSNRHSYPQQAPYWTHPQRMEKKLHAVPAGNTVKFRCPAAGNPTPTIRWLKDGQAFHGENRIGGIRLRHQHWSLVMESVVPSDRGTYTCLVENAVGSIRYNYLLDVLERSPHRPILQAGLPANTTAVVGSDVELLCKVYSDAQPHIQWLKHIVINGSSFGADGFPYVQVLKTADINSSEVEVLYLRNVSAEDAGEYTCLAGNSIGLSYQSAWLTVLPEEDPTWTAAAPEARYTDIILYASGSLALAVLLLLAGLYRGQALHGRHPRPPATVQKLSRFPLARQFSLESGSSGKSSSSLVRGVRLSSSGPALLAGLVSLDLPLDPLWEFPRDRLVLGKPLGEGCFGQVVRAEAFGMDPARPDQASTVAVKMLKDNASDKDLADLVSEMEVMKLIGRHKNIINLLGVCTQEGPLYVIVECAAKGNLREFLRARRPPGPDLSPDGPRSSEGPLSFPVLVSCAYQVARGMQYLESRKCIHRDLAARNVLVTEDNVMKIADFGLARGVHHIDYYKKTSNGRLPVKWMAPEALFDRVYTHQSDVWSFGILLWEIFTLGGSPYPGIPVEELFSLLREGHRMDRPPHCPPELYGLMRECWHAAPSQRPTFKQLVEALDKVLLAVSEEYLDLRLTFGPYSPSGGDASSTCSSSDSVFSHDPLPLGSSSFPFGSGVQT
T3 sequence (P14616 27-1297): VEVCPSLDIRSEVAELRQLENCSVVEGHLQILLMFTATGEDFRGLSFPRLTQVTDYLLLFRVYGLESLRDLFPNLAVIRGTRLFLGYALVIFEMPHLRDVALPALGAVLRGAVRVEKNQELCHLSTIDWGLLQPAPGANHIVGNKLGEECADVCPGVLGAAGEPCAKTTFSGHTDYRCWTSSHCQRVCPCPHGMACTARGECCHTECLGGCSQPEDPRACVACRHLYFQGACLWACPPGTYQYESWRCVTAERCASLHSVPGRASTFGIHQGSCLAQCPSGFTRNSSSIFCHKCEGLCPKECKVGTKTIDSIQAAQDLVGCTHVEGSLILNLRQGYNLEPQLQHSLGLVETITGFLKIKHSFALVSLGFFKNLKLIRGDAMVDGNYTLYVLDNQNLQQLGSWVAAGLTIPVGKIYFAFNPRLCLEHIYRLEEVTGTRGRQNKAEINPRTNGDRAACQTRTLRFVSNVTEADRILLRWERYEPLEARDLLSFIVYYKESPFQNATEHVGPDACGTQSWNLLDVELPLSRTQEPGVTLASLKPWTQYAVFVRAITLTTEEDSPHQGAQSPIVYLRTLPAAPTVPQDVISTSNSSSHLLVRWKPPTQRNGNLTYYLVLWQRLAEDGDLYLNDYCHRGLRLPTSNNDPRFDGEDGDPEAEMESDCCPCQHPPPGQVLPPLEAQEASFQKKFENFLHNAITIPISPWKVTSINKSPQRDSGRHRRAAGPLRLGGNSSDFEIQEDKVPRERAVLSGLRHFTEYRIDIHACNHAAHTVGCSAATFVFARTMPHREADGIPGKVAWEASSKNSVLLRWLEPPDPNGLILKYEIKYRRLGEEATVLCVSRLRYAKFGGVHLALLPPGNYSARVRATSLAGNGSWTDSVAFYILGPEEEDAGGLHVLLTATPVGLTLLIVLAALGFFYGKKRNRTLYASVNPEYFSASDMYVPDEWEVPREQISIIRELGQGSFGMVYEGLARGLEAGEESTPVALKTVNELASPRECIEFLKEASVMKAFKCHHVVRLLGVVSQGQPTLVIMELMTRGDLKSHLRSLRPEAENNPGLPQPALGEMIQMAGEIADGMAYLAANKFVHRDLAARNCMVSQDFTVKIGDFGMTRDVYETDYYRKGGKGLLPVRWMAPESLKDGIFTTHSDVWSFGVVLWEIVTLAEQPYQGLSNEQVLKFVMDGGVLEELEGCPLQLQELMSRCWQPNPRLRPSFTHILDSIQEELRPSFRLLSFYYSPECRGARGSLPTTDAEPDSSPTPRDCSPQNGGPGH
T1 sequence (O60674 whole entry): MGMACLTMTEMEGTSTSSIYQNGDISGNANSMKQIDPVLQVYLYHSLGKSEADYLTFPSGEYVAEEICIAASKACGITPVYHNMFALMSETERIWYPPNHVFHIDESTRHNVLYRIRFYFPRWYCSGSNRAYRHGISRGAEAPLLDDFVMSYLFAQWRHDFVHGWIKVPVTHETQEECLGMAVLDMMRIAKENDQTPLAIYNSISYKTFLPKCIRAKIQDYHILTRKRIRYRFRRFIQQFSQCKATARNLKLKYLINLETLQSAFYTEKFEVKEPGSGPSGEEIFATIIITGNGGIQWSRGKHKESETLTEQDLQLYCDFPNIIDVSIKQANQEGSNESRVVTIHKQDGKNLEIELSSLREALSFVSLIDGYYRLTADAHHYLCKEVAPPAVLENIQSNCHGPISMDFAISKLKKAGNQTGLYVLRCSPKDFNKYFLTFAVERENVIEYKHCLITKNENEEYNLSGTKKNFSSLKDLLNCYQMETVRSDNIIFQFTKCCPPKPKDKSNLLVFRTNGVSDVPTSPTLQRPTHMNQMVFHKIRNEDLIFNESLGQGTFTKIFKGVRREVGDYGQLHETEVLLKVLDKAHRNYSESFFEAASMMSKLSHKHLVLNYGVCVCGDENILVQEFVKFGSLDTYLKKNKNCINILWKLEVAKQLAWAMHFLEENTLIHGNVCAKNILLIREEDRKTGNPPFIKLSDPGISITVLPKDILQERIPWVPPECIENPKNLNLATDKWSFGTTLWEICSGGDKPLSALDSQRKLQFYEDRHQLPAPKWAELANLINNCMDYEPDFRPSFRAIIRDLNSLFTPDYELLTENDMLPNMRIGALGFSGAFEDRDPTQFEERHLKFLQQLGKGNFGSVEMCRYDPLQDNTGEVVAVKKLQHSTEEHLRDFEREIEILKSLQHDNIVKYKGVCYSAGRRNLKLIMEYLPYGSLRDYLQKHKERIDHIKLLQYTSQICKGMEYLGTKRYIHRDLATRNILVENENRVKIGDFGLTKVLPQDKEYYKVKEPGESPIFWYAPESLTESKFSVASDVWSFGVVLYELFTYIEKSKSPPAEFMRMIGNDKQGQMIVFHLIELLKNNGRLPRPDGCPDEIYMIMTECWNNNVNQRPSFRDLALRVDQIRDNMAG
T8 sequence (Q06187 whole entry): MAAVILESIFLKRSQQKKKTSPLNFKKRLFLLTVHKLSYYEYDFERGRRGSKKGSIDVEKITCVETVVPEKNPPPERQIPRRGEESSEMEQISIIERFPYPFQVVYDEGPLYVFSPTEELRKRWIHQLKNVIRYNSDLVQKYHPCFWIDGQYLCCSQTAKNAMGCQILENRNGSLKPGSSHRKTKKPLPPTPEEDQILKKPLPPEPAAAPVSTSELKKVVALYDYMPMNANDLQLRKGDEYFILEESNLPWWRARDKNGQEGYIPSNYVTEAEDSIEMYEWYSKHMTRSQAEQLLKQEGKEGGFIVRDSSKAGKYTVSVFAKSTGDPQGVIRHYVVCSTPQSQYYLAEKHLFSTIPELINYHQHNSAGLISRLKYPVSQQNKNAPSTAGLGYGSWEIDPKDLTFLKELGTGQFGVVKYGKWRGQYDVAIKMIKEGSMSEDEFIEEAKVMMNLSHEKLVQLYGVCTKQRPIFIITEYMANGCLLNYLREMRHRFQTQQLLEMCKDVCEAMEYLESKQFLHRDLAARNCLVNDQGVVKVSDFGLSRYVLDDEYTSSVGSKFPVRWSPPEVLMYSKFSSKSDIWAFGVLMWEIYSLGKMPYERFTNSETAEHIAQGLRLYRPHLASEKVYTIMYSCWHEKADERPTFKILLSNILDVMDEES

SMILES: CNC(=O)c1ccc2c(c1)C(=O)c1ccc(Nc3ccc(F)c(NC(=O)C4CC4)c3)cc1CC2 [Compound 2015]
- remaining activity at 0.2 µM ([1]; 0.2 µM 2015, read-out: JAK2 residual activity): 104%
- remaining activity at 1 µM ([1]; 1 µM 2015, read-out: JAK2 residual activity): 102%
- remaining activity at 0.2 µM ([1]; JAK2, 0.2 µM, read-out: residual activity): 104%
- remaining activity at 1 µM ([1]; JAK2, 1 µM, read-out: residual activity): 102%
- remaining activity at 0.2 µM ([2]; 0.2 µM 2015, read-out: EGFR residual activity): 108%
- remaining activity at 1 µM ([2]; 1 µM 2015, read-out: EGFR residual activity): 96.6%
- remaining activity at 0.2 µM ([2]; EGFR, 0.2 µM, read-out: residual activity): 108%
- remaining activity at 1 µM ([2]; EGFR, 1 µM, read-out: residual activity): 96.6%
- remaining activity at 0.2 µM ([3]; 0.2 µM 2015, read-out: INSRR residual activity): 96%
- remaining activity at 1 µM ([3]; 1 µM 2015, read-out: INSRR residual activity): 97.4%
- remaining activity at 0.2 µM ([3]; INSRR, 0.2 µM, read-out: residual activity): 96%
- remaining activity at 1 µM ([3]; INSRR, 1 µM, read-out: residual activity): 97.4%
- remaining activity at 0.2 µM ([4]; 0.2 µM 2015, read-out: FGFR4 residual activity): 107%
- remaining activity at 1 µM ([4]; 1 µM 2015, read-out: FGFR4 residual activity): 95.9%
- remaining activity at 0.2 µM ([4]; FGFR4, 0.2 µM, read-out: residual activity): 107%
- remaining activity at 1 µM ([4]; FGFR4, 1 µM, read-out: residual activity): 95.9%
- remaining activity at 0.2 µM ([5]; 0.2 µM 2015, read-out: RPS6KA3 residual activity): 107%
- remaining activity at 1 µM ([5]; 1 µM 2015, read-out: RPS6KA3 residual activity): 103%
- remaining activity at 0.2 µM ([5]; RPS6KA3, 0.2 µM, read-out: residual activity): 107%
- remaining activity at 1 µM ([5]; RPS6KA3, 1 µM, read-out: residual activity): 103%
- remaining activity at 0.2 µM ([6]; 0.2 µM 2015, read-out: NEK3 residual activity): 98.3%
- remaining activity at 1 µM ([6]; 1 µM 2015, read-out: NEK3 residual activity): 88.8%
- remaining activity at 0.2 µM ([6]; NEK3, 0.2 µM, read-out: residual activity): 98.3%
- remaining activity at 1 µM ([6]; NEK3, 1 µM, read-out: residual activity): 88.8%
- remaining activity at 0.2 µM ([7]; 0.2 µM 2015, read-out: FAK residual activity): 121%
- remaining activity at 1 µM ([7]; 1 µM 2015, read-out: FAK residual activity): 115%
- remaining activity at 0.2 µM ([7]; FAK, 0.2 µM, read-out: residual activity): 121%
- remaining activity at 1 µM ([7]; FAK, 1 µM, read-out: residual activity): 115%
- remaining activity at 0.2 µM ([8]; 0.2 µM 2015, read-out: BTK residual activity): 116%
- remaining activity at 1 µM ([8]; 1 µM 2015, read-out: BTK residual activity): 106%
- remaining activity at 0.2 µM ([8]; BTK, 0.2 µM, read-out: residual activity): 116%
- remaining activity at 1 µM ([8]; BTK, 1 µM, read-out: residual activity): 106%
- remaining activity at 0.2 µM ([9]; 0.2 µM 2015, read-out: TRKC residual activity): 104%
- remaining activity at 1 µM ([9]; 1 µM 2015, read-out: TRKC residual activity): 94.3%
- remaining activity at 0.2 µM ([9]; TRKC, 0.2 µM, read-out: residual activity): 104%
- remaining activity at 1 µM ([9]; TRKC, 1 µM, read-out: residual activity): 94.3%
- remaining activity at 0.2 µM ([10]; 0.2 µM 2015, read-out: CDK19/CycC residual activity): 99.8%
- remaining activity at 1 µM ([10]; 1 µM 2015, read-out: CDK19/CycC residual activity): 96.4%
- remaining activity at 0.2 µM ([10]; CDK19/CycC, 0.2 µM, read-out: residual activity): 99.8%
- remaining activity at 1 µM ([10]; CDK19/CycC, 1 µM, read-out: residual activity): 96.4%
- remaining activity at 0.2 µM ([11]; 0.2 µM 2015, read-out: SGK2 residual activity): 109%
- remaining activity at 1 µM ([11]; 1 µM 2015, read-out: SGK2 residual activity): 104%
- remaining activity at 0.2 µM ([11]; SGK2, 0.2 µM, read-out: residual activity): 109%
- remaining activity at 1 µM ([11]; SGK2, 1 µM, read-out: residual activity): 104%
